US8329895B2, “Cefdinir acid double salt and method for producing the same” (Zhejiang Adamerck Biopharmlabs Inc., priority 2008, dated 2012)
Structures can show the parent of a compound that is named as a salt. Where two headings read alike, the source gives them in different places. One block for each compound: values may come before it.

Experiments:
[1] = Solubility of cefdinir and the double salts in water; assay type: physicochemical
From the text: The solubility of the compounds of the invention has been increased by 100 times. Table 1 lists the solubility of the compounds of the invention.)

[2] = Bioavailability comparison in beagles, capsules by intragastric administration, cefdinir concentration in venous blood; assay type: in vivo; conditions: for Time to peak / AUC(0-10) / Cmax / AUC(0-t): capsules containing 200 mg of cefdinir, intragastric administration; for Bioavailability percentage increase: compared with conventional cefdinir capsule; for AUC(0-10) / AUC(0-t): 0-10 h; for Cmax: cefdinir in venous blood
Experimental: Beagles, half male and half female, with body weight of 10 kg, were starved for 12 hrs and only water fed. The compounds of the invention were formulated into capsules containing 200 mg of cefdinir and fed to beagles by intragastric administration. The control group was administered with conventional cefdinir capsules. 3 hrs later, the beagles were fed with common food. At 0 h, 0.5 h, 1 h, 1.5 h, 2 h, 2.5 h, 3 h, 4 h, 6 h, 8 h, and 10 h after intragastric administration, 0.5 mL of venous blood was collected respectively to measure the concentration of cefdinir.

[3] = heating; salt disclosed in CN 1,415,615A; cited from earlier work
[4] = background statement; cited from earlier work
[5] = cited from earlier work
[6] = both sexes, beagle, dog, venous blood, po, 200 mg
[7] = both sexes, beagle, dog, venous blood, po, 200 mg, read-out: Cmax

- Solubility [1]: Soluble
- Time to peak [2]: 3 h
- Bioavailability percentage increase [2]: 135%
Structure (SMILES): C=CC1=C(C(=O)O)N2C(=O)C(NC(=O)/C(=N\O)c3csc(N)n3)C2SC1 (single isomer, unassigned; (-)) [Cefdinir sodium(0.5) hydrogen(1.5) sulfate]

Structure (SMILES): C=CC1=C(C(=O)[O-])N2C(=O)C(NC(=O)C(=NO)c3csc(N)n3)C2SC1.[Na+] (stereo not drawn) [sodium cefdinir]
- Temperature at which the salt turns black [3]: 190 °C
- Temperature at which the salt turns yellow [3]: about 160 °C

- Solubility [1]: Soluble
- Time to peak [2]: 2.5 h
- AUC(0-10) [2]: 160.31 µg·h/mL
- Cmax [2]: 34120 ng/mL
- Bioavailability percentage increase [2]: 57%
Structure (SMILES): C=CC1=C(C(=O)O)N2C(=O)C(NC(=O)/C(=N\O)c3csc(N)n3)C2SC1 (single isomer, unassigned; (-)) [Cefdinir ammonium(0.5) hydrogen(1.5) sulfate]

Structure (SMILES): C=CC1=C(C(=O)O)N2C(=O)[C@@H](NC(=O)/C(=N\O)c3csc(N)n3)[C@H]2SC1 [Cefdinir sodium hydrogen sulfate, (−)-(6R,7R)-7-((Z)-2-(2-aminothiazole-4-yl)-2-hydroxyimino-acetylamino)-8-oxo-3-vinyl-5-thia-1-azabicyclo(4.2.0)oct-2-ene-2-carboxylic acid sodium hydrogen sulfate]
- Solubility ([1]; sodium hydrogen sulfate): Slightly soluble
- AUC(0-10) ([2]; sodium hydrogen sulfate): 255.27 µg·h/mL
- Cmax ([2]; sodium hydrogen sulfate): 65430 ng/mL
- Time to peak ([2]; sodium hydrogen sulfate): 3 h
- Bioavailability percentage increase ([2]; sodium hydrogen sulfate): 149%

Structure (SMILES): C=CC1=C(C(=O)O)N2C(=O)[C@@H](NC(=O)/C(=N\O)c3csc(N)n3)[C@H]2SC1 [Cefdinir]
- Solubility in water [4]: insoluble
- bioavailability ([5]; capsule): 16-20%
- bioavailability ([5]; liquid suspension): 25%
- Solubility [1]: hardly soluble

Structure (SMILES): C=CC1=C(C(=O)O)N2C(=O)[C@@H](NC(=O)/C(=N\O)c3csc(N)n3)[C@H]2SC1 [Cefdinir potassium hydrogen sulfate, (−)-(6R,7R)-7-((Z)-2-(2-aminothiazole-4-yl)-2-hydroxyimino-acetylamino)-8-oxo-3-vinyl-5-thia-1-azabicyclo(4.2.0)oct-2-ene-2-carboxylic acid potassium hydrogen sulfate]
- Solubility ([1]; potassium hydrogen sulfate): Slightly soluble
- AUC(0-t) [2, 6]: 261 µg·h/mL
- Cmax [2, 7]: 54100 ng/mL
- Time to peak ([2]; potassium hydrogen sulfate): 2.5 h
- Bioavailability percentage increase ([2]; potassium hydrogen sulfate): 156%

- AUC(0-t) [2, 6]: 240 µg·h/mL
- Cmax [2, 7]: 50200 ng/mL
Structure (SMILES): C=CC1=C(C(=O)O)N2C(=O)C(NC(=O)/C(=N\O)c3csc(N)n3)C2SC1 (single isomer, unassigned; (-))

Structure (SMILES): C=CC1=C(C(=O)O)N2C(=O)[C@@H](NC(=O)/C(=N\O)c3csc(N)n3)[C@H]2SC1 [Cefdinir sodium dihydrogen phosphate, (−)-(6R,7R)-7-((Z)-2-(2-aminothiazole-4-yl)-2-hydroxyimino-acetylamino)-8-oxo-3-vinyl-5-thia-1-azabicyclo(4.2.0)oct-2-ene-2-carboxylic acid sodium dihydrogen phosphate]
- Solubility ([1]; phosphate): Slightly soluble
- AUC(0-10) ([2]; phosphate): 123.55 µg·h/mL
- Cmax ([2]; phosphate): 27280 ng/mL
- Time to peak ([2]; phosphate): 2.5 h
- Bioavailability percentage increase ([2]; phosphate): 20%

- Solubility [1]: Soluble
- Time to peak [2]: 3 h
- AUC(0-10) [2]: 213.40 µg·h/mL
- Cmax [2]: 47650 ng/mL
- Bioavailability percentage increase [2]: 109%
Structure (SMILES): C=CC1=C(C(=O)O)N2C(=O)C(NC(=O)/C(=N\O)c3csc(N)n3)C2SC1 (single isomer, unassigned; (-)) [Cefdinir potassium(0.5) hydrogen(1.5) sulfate]

Structure (SMILES): C=CC1=C(C(=O)O)N2C(=O)[C@@H](NC(=O)/C(=N\O)c3csc(N)n3)[C@H]2SC1 [Cefdinir ammonium hydrogen sulfate, (−)-(6R,7R)-7-((Z)-2-(2-aminothiazole-4-yl)-2-hydroxyimino-acetylamino)-8-oxo-3-vinyl-5-thia-1-azabicyclo(4.2.0)oct-2-ene-2-carboxylic acid ammonium hydrogen sulfate]
- Solubility ([1]; ammonium hydrogen sulfate): Slightly soluble
- AUC(0-10) ([2]; ammonium hydrogen sulfate): 202.18 µg·h/mL
- Time to peak ([2]; ammonium hydrogen sulfate): 3 h
- Cmax ([2]; ammonium hydrogen sulfate): 43630 ng/mL
- Bioavailability percentage increase ([2]; ammonium hydrogen sulfate): 98%

Structure (SMILES): C=CC1=C(C(=O)O)N2C(=O)[C@@H](NC(=O)/C(=N\O)c3csc(N)n3)[C@H]2SC1 [Cefdinir potassium dihydrogen phosphate, (−)-(6R,7R)-7-((Z)-2-(2-aminothiazole-4-yl)-2-hydroxyimino-acetylamino) 8-oxo-3-vinyl-5-thia-1-azabicyclo(4.2.0)oct-2-ene-2-carboxylic acid potassium dihydrogen phosphate]
- AUC(0-10) ([2]; phosphate): 152.15 µg·h/mL
- Cmax ([2]; phosphate): 30370 ng/mL
- Time to peak ([2]; phosphate): 3 h
- Bioavailability percentage increase ([2]; phosphate): 49%
